From patent publication US20140031217A1, “HERBICIDAL COMPOSITIONS COMPRISING 4-AMINO-3-CHLORO-5-FLUORO-6-(4-CHLORO-2-FLUORO-3-METHOXYPHENYL)PYRIDINE-2-CARBOXYLIC ACID OR A DERIVATIVE THEREOF AND AUXIN TRANSPORT INHIBITORS” (DOW AGROSCIENCES LLC, priority 2012, published 2014)

How the values were obtained:
[1] = system: SCPMA; assay: In-water applied (paddy) greenhouse weed control, SCPMA; type: in vivo; conditions: 22 DAA
Description: (§1) Weed seeds or nutlets of the desired test plant species were planted in puddled soil (mud) prepared by mixing a shredded, non-sterilized mineral soil (50.5 percent silt, 25.5 percent clay, and 24 percent sand, with a pH of about 7.6 and an organic matter content of about 2.9 percent) and water at a 1:1 volumetric ratio. The prepared mud was dispensed in 365 mL aliquots into 16-ounce (oz.) non-perforated plastic pots with a surface area of 86.59 square centimeters (cm^2) leaving a headspace of 3 centimeters (cm) in each pot. Mud was allowed to dry overnight prior to planting or transplanting. Rice seeds were planted in Sun Gro MetroMix® 306 planting mixture, which typically has a pH of 6.0 to 6.8 and an organic matter content of about 30 percent, in plastic plug trays. Seedlings at the second or third leaf stage of growth were transplanted into 840 mL of mud contained in 32-oz. non-perforated plastic pots with a surface area of 86.59 cm^2 4 days prior to herbicide application. The paddy was created by filling the headspace of the pots with 2.5 to 3 cm of water. When required to ensure good germination and healthy plants, a fungicide treatment and/or other chemical or physical treatment was applied. The plants were grown for 4-22 days in a greenhouse with an approximate 14 h photoperiod which was maintained at about 29′C during the day and 26° C. during the night. Nutrients were added as Osmocote® (19:6:12, N:P:K+minor nutrients) at 2 g per 16-oz. pot and 4 g per 960-mL 32-oz. pot. Water was added on a regular basis to maintain the paddy flood, and supplemental lighting was provided with overhead metal halide 1000-Watt lamps as necessary. The plants were employed for testing when they reached the second or third true leaf stage.
(§2) Treatments consisted of the acid or esters of 4-amino-3-chloro-5-fluoro-6-(4-chloro-2-fluoro-3-methoxy-phenyl)pyridine-2-carboxylic acid (compound A) each formulated as an SC and various herbicidal components alone and in combination. Forms of compound A were applied on an acid equivalent basis.
(§3) Other herbicidal components were applied on an active ingredient basis and included auxin transport inhibiting (ATI) herbicides chlorflurenol-methyl (technical material), chlorflurenol (technical material), diflufenzopyr (technical material), dilfufenzopyr sodium (technical material), flurenol-methyl (technical material,) and naptalam (technical material).
(§4) Treatment requirements for each compound or herbicidal component were calculated based upon the rates being tested, the concentration of active ingredient or acid equivalent in the formulation, an application volume of 2 mL per component per pot, and an application area of 86.59 cm^2 per pot.
(§5) For formulated compounds, a measured amount was placed in an individual 100 or 200 mL glass vial and was dissolved in a volume of 1.25% (v/v) Agri-Dex® crop oil concentrate to obtain application solutions.
(§6) For technical grade compounds, a weighed amount was placed in an individual 100 to 200 mL glass vial and was dissolved in a volume of acetone to obtain concentrated stock solutions. […] The concentrated stock solutions obtained were diluted with an equivalent volume of an aqueous mixture containing 2.5% (v/v) crop oil concentrate so that the final application solutions contained 1.25% (v/v) crop oil concentrate.
(§7) Applications were made by injecting with a pipetter appropriate amounts of the application solutions, individually and sequentially, into the aqueous layer of the paddy. Control plants were treated in the same manner with the solvent blank. Applications were made so that all treated plant material received the same concentrations of acetone and crop oil concentrate.
(§8) The treated plants and control plants were placed in a greenhouse as described above and water was added as needed to maintain a paddy flood. […]

[2] = system: ECHCG; assay: In-water applied (paddy) greenhouse weed control, ECHCG; type: in vivo, Echinochloa crusgalli (L.) Beauv.
Description: as §1, §2, §3, §4, §5, §6, §7, §8

[3] = system: ECHOR; assay: In-water applied (paddy) greenhouse weed control, ECHOR; type: in vivo, Echinochloa oryzoides (Ard.) Fritsch; conditions: 22 DAA, 550 gai/ha
Description: as §1, §2, §3, §4, §5, §6, §7, §8

[4] = system: CYPRO; assay: In-water applied (paddy) greenhouse weed control, CYPRO; type: in vivo, Cyperus rotundus L.; conditions: 19 DAA
Description: as §1, §2, §3, §4, §5, §6, §7, §8

[5] = system: FIMMI; assay: In-water applied (paddy) greenhouse weed control, FIMMI; type: in vivo, Fimbristylis miliacea (L.) Vahl; conditions: 19 DAA
Description: as §1, §2, §3, §4, §5, §6, §7, §8

Row | SMILES | Visual Weed Control (%) Obs ([1]; 275 gai/ha) [%] | Visual Weed Control (%) Obs ([1]; 550 gai/ha) [%] | Visual Weed Control (%) Obs ([2]; 22 DAA, 275 gai/ha) [%] | Visual Weed Control (%) Obs [3] [%] | Visual Weed Control (%) Obs ([4]; 17.5 gai/ha) [%] | Visual Weed Control (%) Obs ([4]; 35 gai/ha) [%] | Visual Weed Control (%) Obs ([4]; 70 gai/ha) [%] | Visual Weed Control (%) Obs ([2]; 19 DAA, 17.5 gai/ha) [%] | Visual Weed Control (%) Obs ([2]; 19 DAA, 35 gai/ha) [%] | Visual Weed Control (%) Obs ([2]; 19 DAA, 70 gai/ha) [%] | Visual Weed Control (%) Obs ([5]; 17.5 gai/ha) [%] | Visual Weed Control (%) Obs ([5]; 35 gai/ha) [%] | Visual Weed Control (%) Obs ([5]; 70 gai/ha) [%]
1 | O=C(O)C1(O)c2ccccc2-c2ccc(Cl)cc21 (stereo not shown) [Chlorflurenol, reference compound] | 45 | 60 | 10 | 30 |  |  |  |  |  |  |  |  | 
2 | C/C(=N\NC(=O)Nc1cc(F)cc(F)c1)c1ncccc1C(=O)O [Diflufenzopyr sodium] |  |  |  |  | 0 | 0 | 10 | 20 | 50 | 20 | 50 | 55 | 60
